# From US5962516A, “Immunosuppressive compounds and methods” (priority 1999, dated 1999)
# Entries after “also recorded” stand apart in the source; their conditions may differ. Structures can show the parent of a compound that is named as a salt.
# Experiments:
# [1] = Cytotoxicity by MTT reduction reported with the MLR assay (Table II); type: cell-based; details: cytotoxic when toxicity greater than 25%
# Procedure: Potential cytotoxicity of the test samples was assessed by the measurement of their effect on the reduction of MTT (3-[4,5-Dimethylthiazole-2-yl]-2,5-diphenyltetrazolium bromide) by cultured cells. MTT, a yellow-colored compound, is reduced by mitochondrial enzymes to form the purple crystalline reduction product formazane, providing an index of cellular respiration on viable cells as well as a sensitive assay for cytotoxicity (Mossmann, 1983).
# The cytotoxicity was assessed in cultured human PBMC and mouse thymocytes. A stock solution of MTT (Sigma) at 5 mg/ml in phosphate buffered saline, pH 7.4, was prepared and stored in the dark at 4° C. PBMCs or thymocytes were cultured with various concentrations of test samples in flatbottom 96-well tissue culture plates (Costar) under the same conditions as those described above, but the stimulants (X-35 or IL-1+PHA) were replaced by appropriate medium. Untreated cells with medium alone and without the test samples were used as controls. After incubation for 21 hours, 25 μl of MTT solution was added to each well. After an additional three hours of incubation, the experiment was terminated by addition of a solution of 10% sodium dodecyl sulfate in 0.01 N HCl. Following overnight incubation at 37° C. to solubilize the formazane crystals, optical density was determined at 570-650 nm in microplate reader. […]
# [2] = Stability in water (D2O) by 1H NMR; type: physicochemical; details: room temperature, Succinate Sodium Salt
# Procedure: Sodium triptolide succinate, designated YM-274, was dissolved in D2 O, and the aqueous solution was stored at room temperature.
# A solution of sodium triptolide succinate (YM-274) in D2 O was prepared at a concentration of 3 mg/ml and stored at room temperature. The solution was analyzed by ^1 H NMR at intervals of 1, 3, 5, 15, 45, 90, 180 minutes; 1, 7, 14 days; and 1, 2, 3, and 5 months.
# [3] = tested on: testis weight; test: Effect on testis weight in male mice; type: in vivo, mouse (BDF1); parameters: decrease in testis weight: dose or concentration left out as unconfirmed; details: 5 days on/2 days off, 5 weeks, vs saline control
# Procedure: The compounds of the invention are also effective in reducing or inhibiting male fertility, wherein administration of a compound of the invention to a male mammal is effective to reduce the potency of the male's semen, thereby reducing or blocking fertilization. Triptolide succinate (YM-262) was tested for inhibition of fertility in male BDF1 mice, according to protocols described in Example 15. The compound was administered intraperitoneally (IP) in a saline solution, using a cycle of daily administration for 5 days followed by a two day cessation of treatment. […] The cycle was repeated for 5 weeks before evaluation of physiological effects (testis weight) and reproductive performance.
# Triptolide succinate (YM-262) was tested for fertility control in male BDF1 mice, using a cycle of daily administration for 5 days followed by a two day cessation of treatment. The cycle was repeated for 5 weeks, with dosing on days 0-4, 7-11, 14-18, 21-25 and 28-32 before evaluation of physiological effects and reproductive performance. […]
# On day 32, five to six mice from each dosing group were sacrificed, and the testes were removed and stored in formalin for histological analysis and weight determination. The average of both testes was calculated for each mouse, and the mean and standard error of the mean (S.E.) were determined.
# [4] = tested on: male fertility; test: Effect on fertility in male mice; type: in vivo, mouse (BDF1)
# Procedure: The compounds of the invention are also effective in reducing or inhibiting male fertility, wherein administration of a compound of the invention to a male mammal is effective to reduce the potency of the male's semen, thereby reducing or blocking fertilization. Triptolide succinate (YM-262) was tested for inhibition of fertility in male BDF1 mice, according to protocols described in Example 15. The compound was administered intraperitoneally (IP) in a saline solution, using a cycle of daily administration for 5 days followed by a two day cessation of treatment. Dose levels were 0.04 or 0.13 mg/kg/day. The cycle was repeated for 5 weeks before evaluation of physiological effects (testis weight) and reproductive performance.
# The effect of the compound on fertility was tested with groups of five male mice treated according to the same schedule. Each male was housed with two females starting on day 32, after termination of YM-262 treatment.
# Triptolide succinate (YM-262) was tested for fertility control in male BDF1 mice, using a cycle of daily administration for 5 days followed by a two day cessation of treatment. The cycle was repeated for 5 weeks, with dosing on days 0-4, 7-11, 14-18, 21-25 and 28-32 before evaluation of physiological effects and reproductive performance.
# A dosing solution of YM-262 was prepared once a week from a stock solution in saline at 1.0 mg/ml and stored at 4° C. […]
smiles,measurement,setting,value
"CC(C)[C@]12O[C@H]1[C@@H]1O[C@]13[C@]1(O[C@H]1C[C@H]1C4=C(CC[C@@]13C)C(=O)OC4)[C@@H]2O [Triptolide, triptolide, reference compound]",CC50 at 24 h,[1],0.0133 µg/mL
"CC(C)C12OC1C1OC13C1(C)CCC4=C(COC4=O)C1CC1OC13C2OC(=O)CCC(=O)O (stereo not shown) [YM-274, Triptolide Succinate Sodium Salt]","stability in aqueous solution, three months",[2]; 3 months,no appreciable change in the NMR spectrum; also recorded: unchanged after three months in solution
same,"stability in aqueous solution, five months",[2]; 5 months,Some decomposition was apparent; also recorded: some decomposition was observed
"CC(C)C12OC1C1OC13C1(C)CCC4=C(COC4=O)C1CC1OC13C2OC(=O)CCC(=O)O (stereo not shown) [YM-262, Triptolide Succinate]",reduction in testis weight,[3]; 0.13 mg/kg/day i.p.,approximately 13%
same,decrease in testis weight,[3]; (as printed) i.p.,approximately 13%
same,delay of recovery of fertility after termination of therapy,[4]; 0.13 mg/kg/day i.p. over 32 days,21 days
same,reversibility of antifertility effect,[4]; after cessation of administration,the antifertility effect was reversible; also recorded: the control of fertility was reversible
